# Experimental data taken from ChEMBL document CHEMBL3046208, “Natural and synthetic podolactones with potential use as natural herbicide models” (2000).
# Active and inactive are the calls of the source. No cut-off for these calls is given here.
# Key:
# Assay type in all cases: functional
# Hordeum vulgare [1] = assay: Stimulation of root length of Hordeum vulgare (barley) at 0.1 mM after 5 days relative to untreated control
# Triticum aestivum [2] = assay: Stimulation of shoot length of Triticum aestivum (wheat) at 0.1 mM after 5 days relative to untreated control
# Hordeum vulgare [3] = assay: Stimulation of germination of Hordeum vulgare (barley) at 0.1 mM after 5 days relative to untreated control
# Triticum aestivum [4] = assay: Stimulation of root length of Triticum aestivum (wheat) at 0.1 mM after 5 days relative to untreated control
# Triticum aestivum [5] = assay: Stimulation of germination of Triticum aestivum (wheat) at 0.1 mM after 5 days relative to untreated control
# Allium cepa [6] = assay: Stimulation of root length of Allium cepa (onion) at 0.1 mM after 5 days relative to untreated control
# Allium cepa [7] = assay: Stimulation of shoot length of Allium cepa (onion) at 0.1 mM after 5 days relative to untreated control
# Allium cepa [8] = assay: Stimulation of germination of Allium cepa (onion) at 0.1 mM after 5 days relative to untreated control
# Solanum lycopersicum [9] = assay: Stimulation of shoot length of Solanum lycopersicum (tomato) at 0.1 mM after 5 days relative to untreated control
# Solanum lycopersicum [10] = assay: Stimulation of root length of Solanum lycopersicum (tomato) at 0.1 mM after 5 days relative to untreated control
# Solanum lycopersicum [11] = assay: Stimulation of germination of Solanum lycopersicum (tomato) at 0.1 mM after 5 days relative to untreated control
# Lepidium sativum [12] = assay: Stimulation of shoot length of Lepidium sativum at 0.1 mM after 5 days relative to untreated control
# Lepidium sativum [13] = assay: Stimulation of root length of Lepidium sativum at 0.1 mM after 5 days relative to untreated control
# Lactuca sativa [14] = assay: Stimulation of shoot length of Lactuca sativa cv. Roman (lettuce) at 0.1 mM after 5 days relative to untreated control
# Lepidium sativum [15] = assay: Stimulation of germination of Lepidium sativum at 0.1 mM after 5 days relative to untreated control
# Lactuca sativa [16] = assay: Stimulation of root length of Lactuca sativa cv. Roman (lettuce) at 0.1 mM after 5 days relative to untreated control
# Lactuca sativa [17] = assay: Stimulation of germination of Lactuca sativa cv. Roman (lettuce) at 0.1 mM after 5 days relative to untreated control
# Lactuca sativa [18] = assay: Stimulation of shoot length of Lactuca sativa cv. Nigra (lettuce) at 0.1 mM after 5 days relative to untreated control
# Lactuca sativa [19] = assay: Stimulation of root length of Lactuca sativa cv. Nigra (lettuce) at 0.1 mM after 5 days relative to untreated control
# Lactuca sativa [20] = assay: Stimulation of germination of Lactuca sativa cv. Nigra (lettuce) at 0.1 mM after 5 days relative to untreated control
# Triticum aestivum [21] = assay: Inhibition of shoot length of Triticum aestivum (wheat) at 0.1 mM after 5 days relative to untreated control
# Hordeum vulgare [22] = assay: Inhibition of germination of Hordeum vulgare (barley) at 0.1 mM after 5 days relative to untreated control; settings: 120 h
# Hordeum vulgare [23] = assay: Inhibition of root length of Hordeum vulgare (barley) at 0.1 mM after 5 days relative to untreated control; settings: 120 h
# Hordeum vulgare [24] = assay: Stimulation of shoot length of Hordeum vulgare (barley) at 0.1 mM after 5 days relative to untreated control
# Lactuca sativa [25] = assay: Inhibition of germination of Lactuca sativa cv. Nigra (lettuce) at 0.1 mM after 5 days relative to untreated control
# Lactuca sativa [26] = assay: Inhibition of root length of Lactuca sativa cv. Nigra (lettuce) at 0.1 mM after 5 days relative to untreated control
# Lactuca sativa [27] = assay: Inhibition of shoot length of Lactuca sativa cv. Nigra (lettuce) at 0.1 mM after 5 days relative to untreated control; settings: 120 h
# Hordeum vulgare [28] = assay: Inhibition of germination of Hordeum vulgare (barley) at 1 uM after 5 days relative to untreated control; settings: 120 h
# Allium cepa [29] = assay: Inhibition of germination of Allium cepa (onion) at 10 nM after 5 days relative to untreated control; settings: 120 h
# Solanum lycopersicum [30] = assay: Stimulation of root length of Solanum lycopersicum (tomato) at 1 nM after 5 days relative to untreated control
# Lactuca sativa [31] = assay: Inhibition of germination of Lactuca sativa cv. Roman (lettuce) at 0.1 mM after 5 days relative to untreated control; settings: 120 h
# Lactuca sativa [32] = assay: Inhibition of root length of Lactuca sativa cv. Roman (lettuce) at 0.1 mM after 5 days relative to untreated control
# Lactuca sativa [33] = assay: Inhibition of shoot length of Lactuca sativa cv. Roman (lettuce) at 0.1 mM after 5 days relative to untreated control; settings: 120 h
# Lepidium sativum [34] = assay: Inhibition of germination of Lepidium sativum at 0.1 mM after 5 days relative to untreated control
# Lepidium sativum [35] = assay: Inhibition of root length of Lepidium sativum at 0.1 mM after 5 days relative to untreated control; settings: 120 h
# Lepidium sativum [36] = assay: Inhibition of shoot length of Lepidium sativum at 0.1 mM after 5 days relative to untreated control; settings: 120 h
# Solanum lycopersicum [37] = assay: Inhibition of germination of Solanum lycopersicum (tomato) at 0.1 mM after 5 days relative to untreated control; settings: 120 h
# Solanum lycopersicum [38] = assay: Inhibition of root length of Solanum lycopersicum (tomato) at 0.1 mM after 5 days relative to untreated control; settings: 120 h
# Solanum lycopersicum [39] = assay: Inhibition of shoot length of Solanum lycopersicum (tomato) at 0.1 mM after 5 days relative to untreated control; settings: 120 h
# Allium cepa [40] = assay: Inhibition of germination of Allium cepa (onion) at 0.1 mM after 5 days relative to untreated control; settings: 120 h
# Allium cepa [41] = assay: Inhibition of root length of Allium cepa (onion) at 0.1 mM after 5 days relative to untreated control
# Allium cepa [42] = assay: Inhibition of shoot length of Allium cepa (onion) at 0.1 mM after 5 days relative to untreated control; settings: 120 h
# Triticum aestivum [43] = assay: Inhibition of germination of Triticum aestivum (wheat) at 0.1 mM after 5 days relative to untreated control
# Triticum aestivum [44] = assay: Inhibition of root length of Triticum aestivum (wheat) at 0.1 mM after 5 days relative to untreated control
# Hordeum vulgare [45] = assay: Inhibition of shoot length of Hordeum vulgare (barley) at 0.1 mM after 5 days relative to untreated control; settings: 120 h
compound,measurement,setting,value
COC(=O)[C@@]1(C)CCC[C@]2(C)C3=C(CC[C@@H]12)COC(=O)C3,Activity,Hordeum vulgare [1],>40%
same,Activity,Triticum aestivum [2],inactive
same,Activity,Hordeum vulgare [3],>40%
same,Activity,Triticum aestivum [4],inactive
same,Activity,Triticum aestivum [5],inactive
same,Activity,Allium cepa [6],inactive
same,Activity,Allium cepa [7],<20%
same,Activity,Allium cepa [8],20%
same,Activity,Solanum lycopersicum [9],<20%
same,Activity,Solanum lycopersicum [10],>40%
same,Activity,Solanum lycopersicum [11],<20%
same,Activity,Lepidium sativum [12],<20%
same,Activity,Lepidium sativum [13],<20%
same,Activity,Lactuca sativa [14],<20%
same,Activity,Lepidium sativum [15],inactive
same,Activity,Lactuca sativa [16],inactive
same,Activity,Lactuca sativa [17],<20%
same,Activity,Lactuca sativa [18],<20%
same,Activity,Lactuca sativa [19],inactive
same,Activity,Lactuca sativa [20],inactive
same,inhibition,Triticum aestivum [21],inactive
same,inhibition at 100 µM,Hordeum vulgare [22],> 40%
same,inhibition at 100 µM,Hordeum vulgare [23],> 40%
same,Activity,Hordeum vulgare [24],>40%
same,inhibition,Lactuca sativa [25],inactive
same,inhibition,Lactuca sativa [26],inactive
same,inhibition at 100 µM,Lactuca sativa [27],< 20%
same,inhibition at 1 µM,Hordeum vulgare [28],-71%
same,inhibition at 0.01 µM,Allium cepa [29],-45%
same,Activity,Solanum lycopersicum [30],56%
same,inhibition at 100 µM,Lactuca sativa [31],< 20%
same,inhibition,Lactuca sativa [32],inactive
same,inhibition at 100 µM,Lactuca sativa [33],< 20%
same,inhibition,Lepidium sativum [34],inactive
same,inhibition at 100 µM,Lepidium sativum [35],< 20%
same,inhibition at 100 µM,Lepidium sativum [36],< 20%
same,inhibition at 100 µM,Solanum lycopersicum [37],< 20%
same,inhibition at 100 µM,Solanum lycopersicum [38],> 40%
same,inhibition at 100 µM,Solanum lycopersicum [39],< 20%
same,inhibition at 100 µM,Allium cepa [40],20%
same,inhibition,Allium cepa [41],inactive
same,inhibition at 100 µM,Allium cepa [42],< 20%
same,inhibition,Triticum aestivum [43],inactive
same,inhibition,Triticum aestivum [44],inactive
same,inhibition at 100 µM,Hordeum vulgare [45],> 40%
